Test results from patent US9340577B2, “HLA binding motifs and peptides and their uses” (priority 1992, dated 2016).
Read-outs that look alike come from different tables or passages of the source. No end group written: not given here.

Legend:
Assay in all cases: biochemical
[1] = molecular target: A*6802 (Homo sapiens, UniProt P04439, A269V/D140Y/D185E/E176V/E277Q/E87N/F33Y/G231S/I121R/I166T/I218V/L180W/L300P/L318F/N151K/P208A/P217A/Q86R/R138H/R169H/S129P/T345S/V36M); type: binding
[2] = molecular target: DRB4*0101 (Homo sapiens, UniProt P01903+P13762, G164S); type: binding
[3] = molecular target: DRB1*1501 (Homo sapiens, UniProt P01903+P01911); type: binding
[4] = molecular target: DR7 (DRB1*0701) (Homo sapiens, UniProt P01903+P01911, A100R/A102G/A103Q/D57E/D86V/E43K/F76Y/K127E/L162R/M171V/P40G/Q125H/Q99D/R33Q/R42Y/R54Q/S133A/S66F/T210M/V115G/Y107V/Y59L/Y89S); type: binding
[5] = molecular target: DRB1*1101 (Homo sapiens, UniProt P01903+P01911, A100R/A169T/A87E/I96F/K41T/L162R/M171V/P40S/Q125H/Q178H/Q39Y/Q99D/R42S/S66Y/T262R/V115G/W38E)
Chain of DRB1*1101 (P01903 26-254 limits assumed, other chains not shown): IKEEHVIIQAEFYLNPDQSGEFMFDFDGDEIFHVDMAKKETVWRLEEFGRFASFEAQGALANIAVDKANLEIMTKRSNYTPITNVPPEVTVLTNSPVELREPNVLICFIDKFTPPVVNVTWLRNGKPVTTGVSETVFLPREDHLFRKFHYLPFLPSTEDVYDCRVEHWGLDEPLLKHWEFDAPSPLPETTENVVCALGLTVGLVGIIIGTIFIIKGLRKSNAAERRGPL

[6] = molecular target: DRB1*1302 (Homo sapiens, UniProt P01903+P01911, A100E/A169T/K41T/L162R/M171V/P40S/Q125H/Q178H/Q39Y/Q99D/R42S/S66N/T262R/V115G/W38E/Y61H); type: binding
Chain of DRB1*1302 (P01903 26-254 limits assumed, other chains not shown): as above

[7] = molecular target: DRB5*0101 (Homo sapiens, UniProt P01903+Q30154)
[8] = molecular target: DRB1*0802 (Homo sapiens, UniProt P01903+P01911, A100R/A103L/A169T/F76Y/H45Y/I96F/K41T/L162R/M171V/P40S/Q125H/Q178H/Q39Y/Q99D/R218S/R42G/S66Y/V115G/W38E); type: binding
[9] = molecular target: DRB1*0901 (Homo sapiens, UniProt P01903+P01911, A100R/A103E/D57H/D86V/F55Y/F60I/F76Y/I96F/K127E/L162R/M171V/P40D/Q125H/Q99R/R33Q/R42F/S133A/S66N/T210M/V115G/W38K/Y107V/Y59G/Y89S); type: binding
[10] = molecular target: A*0202 (Homo sapiens, UniProt P04439, D140Y/D185E/D98H/E176V/E277Q/G131W/G231S/I119L/I121R/I166T/I218V/L180W/L300P/L318F/N151K/N90K/P208A/P217A/Q67R/Q86G/Q94H/R138H/R169H/T345S); type: binding
[11] = molecular target: DR4w4 (DRB1*0401) (Homo sapiens, UniProt P01903+P01911, A100K/A169T/F76Y/I96L/K127E/L162R/M171V/N62H/P40V/Q125Y/R42H/S133A/S149N/S66Y/V115G/V209L/W38E); type: binding
[12] = molecular target: DR1 (DRB1*0101) (Homo sapiens, UniProt P01903+P01911, A100R/D57E/F55L/F60I/F76Y/I96L/L162R/M171V/P40L/Q125E/R42F/V115G/Y59C); type: binding

Row | Compound | IC50 [2] [nM] | IC50 [3] [nM] | IC50 [4] [nM] | IC50 ([5]; Binding affinity DRB1 *1101) [nM] | IC50 [6] [nM] | IC50 ([7]; Binding affinity DRB5 *0101) [nM] | IC50 [8] [nM] | IC50 [9] [nM] | IC50 [11] [nM] | also measured
1 | TLHDLCQAL [Peptide 1481.47] |  |  |  |  |  |  |  |  |  | IC50 [1]: > 20000 nM
2 | CC[C@H](C)[C@H](NC(=O)[C@@H](NC(=O)[C@H](CCSC)NC(=O)[C@H](Cc1ccc(O)cc1)NC(=O)CNC(=O)[C@@H](NC(=O)[C@H](CO)NC(=O)[C@@H](NC(=O)[C@H](CCC(N)=O)NC(=O)[C@@H](NC(=O)[C@H](CO)NC(=O)[C@H](CC(N)=O)NC(=O)[C@@H]1CCCN1C(=O)[C@@H](NC(=O)[C@@H](N)[C@@H](C)O)[C@@H](C)CC)C(C)C)[C@@H](C)CC)C(C)C)[C@@H](C)O)C(=O)O [Peptide 1601.42] | 16 | 10 | 9 |  |  |  |  |  |  | 
3 | SEVYDFAFADLTVVY [Peptide 85.0024] |  |  |  | > 20000 | > 20000 |  |  |  |  | 
4 | LHLLSNDMCARAYSE [Peptide 68.0140] |  | > 20000 | > 20000 | > 20000 |  | > 20000 | > 20000 | > 20000 |  | 
5 | LQLPPLERLTV [Peptide 73.0158] |  |  |  |  |  |  |  |  |  | IC50 [1]: > 20000 nM
6 | RTLHDLCQA [Peptide 1481.46] |  |  |  |  |  |  |  |  |  | IC50 [1]: > 20000 nM
7 | KLFCADPAL [Peptide 1578.50] |  |  |  |  |  |  |  |  |  | IC50 [10]: 6.8 nM; IC50 [1]: > 20000 nM
8 | 702.17 (AYAAAKA; also: non-natural residues (20)) [Peptide 702.17] |  |  |  |  |  |  |  |  |  | IC50 ([4]; read-out: DRB1*0701): 8330 nM; IC50 ([11]; read-out: DRB1*0401): 250 nM
9 | CC[C@H](C)[C@H](NC(=O)[C@H](CCCCN)NC(=O)[C@H](CC(N)=O)NC(=O)[C@@H](NC(=O)[C@@H](NC(=O)[C@H](CC(C)C)NC(=O)[C@@H](NC(=O)[C@H](CO)NC(=O)[C@H](CC(C)C)NC(=O)[C@H](C)N)[C@@H](C)O)C(C)C)C(C)C)C(=O)N[C@@H](CCCNC(=N)N)C(=O)NCC(=O)N[C@H](C(=O)N[C@@H](Cc1ccccc1)C(=O)N[C@@H](CCCCN)C(=O)O)[C@@H](C)O [Peptide F196.09] | 214 | 160 |  |  | 7.6 |  |  |  |  | IC50 [7]: 38 nM; IC50 [5]: 32 nM
10 | EIYIIEETTCTLVAG [Peptide 90.0251] | 1100 |  |  |  | 1110 |  |  |  |  | 
11 | 839.03 (AAAATKAAAA; also: non-natural residues (14), (35)) [Peptide 839.03] |  |  |  |  |  |  |  |  |  | IC50 ([11]; read-out: DRB1*0401): > 500 nM
12 | LKTIIKPHCMYYHMQ [Peptide 89.0119] | 1680 | 17400 | > 20000 | > 20000 | 104 |  | > 20000 | > 20000 | 2000 | IC50 [7]: > 20000 nM; IC50 [12]: > 20000 nM
13 | NKALQAIELQLTLET [Peptide 89.0151] | 32 | > 20000 | 1200 |  | 1800 | 462 |  | 16800 |  | IC50 [12]: 80 nM
14 | CC[C@H](C)[C@H](NC(=O)[C@H](CCC(N)=O)NC(=O)[C@@H](NC(=O)[C@H](CO)NC(=O)[C@H](CC(=O)O)NC(=O)[C@@H]1CCCN1C(=O)[C@@H](NC(=O)[C@H](C)NC(=O)[C@@H](NC(=O)[C@@H](NC(=O)[C@H](CC(N)=O)NC(=O)[C@H](CC(C)C)NC(=O)[C@@H](N)Cc1ccccc1)[C@@H](C)O)C(C)C)[C@@H](C)CC)C(C)C)C(=O)N[C@@H](CC(C)C)C(=O)N[C@H](C(=O)O)C(C)C [Peptide 1601.20] |  |  |  | > 20000 | 90 | > 20000 | > 20000 |  |  | 
15 | VTAKELKFV [Peptide 1418.24] |  |  |  |  |  |  |  |  |  | IC50 [1]: > 20000 nM
16 | CC[C@H](C)[C@H](NC(=O)[C@@H](N)Cc1c[nH]c2ccccc12)C(=O)N[C@H](C(=O)N[C@@H](CCC(N)=O)C(=O)N[C@@H](CS)C(=O)N[C@@H](Cc1ccccc1)C(=O)N[C@@H](CC(C)C)C(=O)N1CCC[C@H]1C(=O)N[C@H](C(=O)N[C@@H](Cc1ccccc1)C(=O)N[C@@H](CC(C)C)C(=O)N[C@@H](C)C(=O)N[C@@H](CCC(N)=O)C(=O)N1CCC[C@H]1C(=O)N1CCC[C@H]1C(=O)N[C@@H](CO)C(=O)NCC(=O)N[C@@H](CCC(N)=O)C(=O)N[C@@H](CCCNC(=N)N)C(=O)N[C@@H](CCCNC(=N)N)C(=O)O)C(C)C)[C@@H](C)O [Peptide F189.02] | 688 | 726 |  |  | 23600 |  |  |  |  | 
17 | GKSYFGMSLIHFLKG [Peptide 89.0146] |  | > 20000 | > 20000 | > 20000 | > 20000 | > 20000 | > 20000 | > 20000 | 561 | IC50 [12]: > 20000 nM

Row | Compound | IC50 [2] [nM] | IC50 [3] [nM] | IC50 [4] [nM] | IC50 ([5]; Binding affinity DRB1 *1101) [nM] | IC50 [6] [nM] | IC50 ([7]; Binding affinity DRB5 *0101) [nM] | IC50 [8] [nM] | IC50 [9] [nM] | IC50 [11] [nM] | also measured
18 | CC[C@H](C)[C@H](NC(=O)CNC(=O)[C@H](CCCNC(=N)N)NC(=O)[C@H](CCCNC(=N)N)NC(=O)[C@H](Cc1ccc(O)cc1)NC(=O)[C@H](C)NC(=O)[C@H](Cc1ccc(O)cc1)NC(=O)[C@@H](N)CCC(=O)O)C(=O)N[C@@H](C)C(=O)N[C@@H](CCC(=O)O)C(=O)N[C@@H](C)C(=O)N[C@H](C(=O)NCC(=O)N[C@@H](CC(C)C)C(=O)N1CCC[C@H]1C(=O)O)C(C)C [Peptide 68.0100] |  | > 20000 |  |  |  |  |  |  |  | 
19 | RLTVSKLMSQLLNIP [Peptide 89.0100] | 4820 | > 20000 | 4990 | > 20000 | 7.3 | > 20000 | > 20000 | > 20000 |  | 
20 | 787.39 (AAIGGIFIFKKDA; also: non-natural residue (43)) [Peptide 787.39] |  |  |  |  |  |  |  |  |  | IC50 ([11]; read-out: DRB1*0401): 800 nM
21 | Ac-AAAKAAAAAAFAA [Peptide 730.09] |  |  |  |  |  |  |  |  | 421 | 
22 | Ac-AAAKAAAAAAYAA [Peptide 702.08] |  |  |  |  |  |  |  |  | 348 | 
23 | LVQLKCPPLLITSNI [Peptide 89.0021] | 234 |  |  | > 20000 |  | > 20000 | > 20000 | > 20000 | 4290 | IC50 [12]: 72 nM
24 | LIRLENAILFTAREH [Peptide 90.0002] | 339 | 2070 |  | 5690 | 51 | 4270 | 11700 |  | 1220 | IC50 [12]: 23 nM
25 | LLLPPLERLTL [Peptide 73.0157] |  |  |  |  |  |  |  |  |  | IC50 [1]: > 20000 nM
26 | GHQVVPPMAVSKAKA [Peptide 90.0011] | 66 |  | 6240 | 2060 | 2580 | 5320 | 1630 |  | 451 | 
27 | SWGMVMLMLVRFKCA [Peptide 89.0044] | 1440 |  | > 20000 |  | 975 | 5060 | 9990 | > 20000 | 3380 | IC50 [12]: 4890 nM
28 | 730.15 (AAKAAAAAAAAA; also: non-natural residue (10)) [Peptide 730.15] |  |  |  |  |  |  |  |  |  | IC50 ([11]; read-out: DRB1*0401): > 889 nM
29 | TNCMLIQPPKLRSTA [Peptide 89.0046] | 479 | 5120 | 1120 | 1090 | 5100 |  |  | > 20000 |  | 
30 | ACSWGMVVLLLVRYK [Peptide 89.0004] | 1520 | 870 |  |  |  | > 20000 | 4770 | 2000 | 701 | IC50 [12]: 1020 nM
31 | ACSWGMVMLMLVRFK [Peptide 89.0043] | 467 |  | > 20000 | 679 |  | 5630 | 2900 | 10500 |  | 
32 | 787.35 (AAIGFFFFKKGIA; also: non-natural residue (43)) [Peptide 787.35] |  |  |  |  |  |  |  |  |  | IC50 ([11]; read-out: DRB1*0401): 258 nM
33 | QYIKANSSFIGITE |  |  |  |  |  |  |  |  | 13 | 
